From US20250051762A1, “PLATFORM USING DNA-ENCODED SMALL MOLECULE LIBRARIES AND RNA SELECTION TO DESIGN SMALL MOLECULES THAT TARGET RNA” (University of Florida Research Foundation, Incorporated, priority 2021, published 2025)

Experiments:
PDCD4 = test: Western blot of PDCD4 in MDA-MB-231 cells; assay type: cell-based, human; conditions: relative to β-actin, 48 h
Experimental: Western Blotting: MDA-MB-231 cells were grown in 6-well plates to ˜80% confluency in complete growth medium and then incubated with 9 at the indicated concentrations for 48 h. Total protein was extracted using M-PER Mammalian Protein Extraction Reagent (Pierce Biotechnology) using the manufacturer's protocol and quantified using a Micro BCA Protein Assay Kit (Pierce Biotechnology). Approximately 50 μg of total protein was separated on a 10% SDS-polyacrylamide gel, and then transferred to a PVDF membrane. The membrane was washed with 1× Tris-buffered saline (TBS) and then blocked in 1×TBST (1×TBS containing 0.1% (v/v) Tween-20) containing 5% (w/v) milk for 1 h at room temperature. […] The membrane was again washed with 1×TBST, and protein expression was quantified using SuperSignal West Pico Chemiluminescent Substrate (Pierce Biotechnology) per the manufacturer's protocol.
To quantify b-actin expression, used for normalization, the membrane was stripped using 1× Stripping Buffer (200 mM glycine, pH 2.2 and 0.1% SDS) followed by washing in 1×TBST. […] The fold change of the target protein expression (PP4C or PDCD4) was calculated by normalizing its band intensity to b-actin band intensity using ImageJ.

MDA-MB-231 cells = test: Migration assay of MDA-MB-231 cells; assay type: cell-based, human
Experimental: Migration assay: MDA-MB-231 cells were grown in 60 mm diameter dishes and treated as described in “Cell culture and compound treatment” for 12 h. The medium was then removed and replaced with growth medium lacking FBS but with the same concentration of compound. After 12 h of serum starvation, the cells were detached and seeded to ThinCert™ (GBO) 24-well hanging inserts with 8 μm pores (˜5×10^4 cells per insert). Fresh growth medium with FBS was dispended in a 24-well plate (600 μL each well), and the ThinCert™ hanging inserts containing cells were then placed into the wells. After incubating for 24 h, the growth medium in the inserts was removed, and the remaining cells were washed twice with 1×DPBS. Cells were fixed by addition of 3% (w/v) paraformaldehyde (PFA) prepared in 1×DPBS at room temperature for 20 min. The PFA solution was removed, and cells were washed twice with 1×PBS. The cells were then stained with Crystal Violet (10 mg/mL; 4:1 H2O: MeOH) at room temperature for 20 min. A cotton swab was used to gently remove non-migrating cells from the top side of the filter. The remaining cells were then imaged by microscopy and counted for quantification (3 fields of view per sample).

pri-miR-27a = test: Competitive MST binding assay with unlabeled miR-27a precursor; parameters: species or system human; conditions: 100 nM compound, Cy5-labeled Drosha site model
Experimental: To measure the affinity of 9 for the 5′GAG/3′CCC loop in the context of pri-miR-27a, a competitive binding assay was used with a constant concentration of compound (100 nM) and the Cy5-labeled model of pri-miR-27a's Drosha site, and varying concentrations of unlabeled miR-27a precursor as reported by miRBase. (35) That is, the miR-27a precursor competes with the Cy5-labeled model of pri-miR-27a's Drosha site for binding 9. […] Thus, the compounds identified by using DEL-2DCS can bind avidly to biologically relevant RNA targets identified by Inforna.
For competitive binding assays, both WT and mutant pri-miR-27a RNAs were transcribed as previously described (see Table S6 for sequences). (11) The RNA was purified by gel electrophoresis and folded in 1× Binding Buffer at final concentration of 750 nM by heating at 60° C. for 5 min and then slowly cooling to room temperature. […] The resulting data were analyzed by SigmaPlot and fitted by Equation 2 to yield the competitive dissociation constant (Kd competitive).
where F is the concentration of fluorescence-labeled RNA; unbound and bound refers to the thermophoresis signal at completely unbound and bound state of RNA, respectively; c is the concentration of the compound; f (c) is the thermophoresis signal at compound concentration of c; Kd is the dissociation constant. […]

## C#CCN(CC(N)=O)C(=O)C[C@H](Cc1c[nH]c2ccccc12)NC(=O)[C@@H]1C[C@H](NC(=O)Cn2c(=O)[nH]c3ccccc3c2=O)CN1 [Compound 9]
PDCD4
  PDCD4 expression: upregulation
MDA-MB-231 cells; MDA-MB-231, normalized to vehicle
  number of migrated cells: dose dependent reduction
MDA-MB-231 cells; MDA-MB-231 migration
  concentration with statistically significant phenotype reduction: 100 nM
pri-miR-27a
  Kd: 40 ± 30 nM
